Patent US5747467A, “Erythromycins” (Roussel Uclaf, priority 1995, dated 1998)
In brackets after ≈: the same amount, converted by molar mass.

Columns and labels:
Type in all cases: cell-based
[1] = tested on: Staphylococcus aureus 011G025I; assay: M.I.C., dilutions in liquid medium; conditions: 24 hours at 37° C., read-out: minimal inhibitory concentration (M.I.C.)
Protocol: (§1) Method of dilutions in liquid medium A series of tubes was prepared into which an equal quantity of sterile nutritive medium was distributed. Increasing quantities of the product to be studied were distributed into each tube and then each tube was seeded with a bacterial strain. After incubation for twenty-four hours in an oven at 37° C., the growth inhibition was evaluated by trans-illumination which allowed the minimal inhibitory concentrations (M.I.C.), expressed in micrograms/cm^3, to be determined.

[2] = tested on: Staphylococcus aureus 011UC4; assay: M.I.C., dilutions in liquid medium; conditions: 24 hours at 37° C., read-out: minimal inhibitory concentration (M.I.C.)
Protocol: as §1

[3] = tested on: Staphylococcus epidermidis 012GO11I; assay: M.I.C., dilutions in liquid medium; conditions: 24 hours at 37° C., read-out: minimal inhibitory concentration (M.I.C.)
Protocol: as §1

[4] = tested on: Streptococcus agalactiae group B 02B1HT1; assay: M.I.C., dilutions in liquid medium; conditions: GROUPB02B1HT1, 24 hours at 37° C., read-out: minimal inhibitory concentration (M.I.C.)
Protocol: as §1

[5] = tested on: Streptococcus agalactiae group B 02B1SJ1; assay: M.I.C., dilutions in liquid medium; conditions: GROUPB02B1SJ1, 24 hours at 37° C., read-out: minimal inhibitory concentration (M.I.C.)
Protocol: as §1

[6] = tested on: Streptococcus faecalis group D 02D2UC1; assay: M.I.C., dilutions in liquid medium; conditions: Enterococcus faecalis, GROUPD02D2UC1, 24 hours at 37° C., read-out: minimal inhibitory concentration (M.I.C.)
Protocol: as §1

[7] = tested on: Streptococcus faecium group D 02D3HT1; assay: M.I.C., dilutions in liquid medium; conditions: Enterococcus faecium, GROUPD02D3HT1, 24 hours at 37° C., read-out: minimal inhibitory concentration (M.I.C.)
Protocol: as §1

[8] = tested on: Streptococcus mitis 02mitCB1; assay: M.I.C., dilutions in liquid medium; conditions: 24 hours at 37° C., read-out: minimal inhibitory concentration (M.I.C.)
Protocol: as §1

[9] = tested on: Streptococcus mitis 02mitGR16I; assay: M.I.C., dilutions in liquid medium; conditions: 24 hours at 37° C., read-out: minimal inhibitory concentration (M.I.C.)
Protocol: as §1

[10] = tested on: Streptococcus pneumoniae 030SJ5; assay: M.I.C., dilutions in liquid medium; conditions: 24 hours at 37° C., read-out: minimal inhibitory concentration (M.I.C.)
Protocol: as §1

[11] = tested on: Streptococcus pyogenes group A 02A1UC1; assay: M.I.C., dilutions in liquid medium; conditions: GROUPA02A1UC1, 24 hours at 37° C., read-out: minimal inhibitory concentration (M.I.C.)
Protocol: as §1

[12] = tested on: Streptococcus sp group G 02G0GR5; assay: M.I.C., dilutions in liquid medium; conditions: GROUPG02G0GR5, 24 hours at 37° C., read-out: minimal inhibitory concentration (M.I.C.)
Protocol: as §1

[13] = tested on: Haemophilus Influenzae 351HT3, 351CB12, 351CA1 and 351GR6; assay: activity on gram (-) bacterial strains
Protocol: as §1

CC[C@H]1OC(=O)C(C)(F)C(=O)[C@H](C)[C@@H](O[C@@H]2O[C@H](C)C[C@H](N(C)C)[C@H]2O)[C@](C)(OC)C[C@@H](C)C(=O)[C@H](C)[C@H]2N(CCCCn3cnc4cccnc43)C(=O)O[C@]12C (single isomer, unassigned) [Example 1, 11,12-dideoxy-3-de[(2,6-dideoxy-3-C-methyl-3-0-methyl-α-L-ribohexopyranosyl)-oxy]-2-fluoro-6-0-methyl-3-oxo-12,11-(oxycarbonyl( (4-(3H-imidazo(4,5-b)pyridin-3-yl)-butyl)-imino))-erythromycin]
MIC [1]: 0.08 µg/mL (≈ 0.0995 µM) | MIC [2]: 0.04 µg/mL (≈ 0.0498 µM) | MIC [3]: 0.15 µg/mL (≈ 0.187 µM) | MIC [4]: ≤ 0.02 µg/mL | MIC [5]: 0.08 µg/mL (≈ 0.0995 µM) | MIC [6]: 0.02 µg/mL (≈ 0.0249 µM) | MIC [7]: ≤ 0.02 µg/mL | MIC [8]: ≤ 0.02 µg/mL | MIC [9]: ≤ 0.02 µg/mL | MIC [10]: 0.02 µg/mL (≈ 0.0249 µM) | MIC [11]: ≤ 0.02 µg/mL | MIC [12]: 0.02 µg/mL (≈ 0.0249 µM) | activity on gram (-) bacterial strains [13]: very useful activity
